Laboratory results published in patent publication US20150252048A1, “SUBSTITUTED N-(3-PYRIMIDIN-4-YL)PHENYL)ACRYLAMIDE ANALOGS AS TYROSINE RECEPTOR KINASE BTK INHIBITORS” (UNIVERSITY OF UTAH RESEARCH FOUNDATION, priority 2012, published 2015).

Columns and labels:
[1] = Microsomal stability; assay type: in vitro ADME, rat; conditions: for Compound Remaining: rat microsomes 0.5 mg protein/mL, 1 μM
Method: Data were also obtained for the stability of Compound 3 when incubated with a microsomal preparation. Drug metabolism can occur, at least in part, in cellular microsomes, and thus the assay assesses the stability of drug to metabolic modification. The concentration of compound 3 was 1 μM in the assay system and the indicated microsomes were present at 0.5 mg total protein per milliliter. The concentration of intact drug was determined at the indicated timepoints using a LC-MS/MS assay. The enzyme activity of the microsomes used in this study were assessed using a positive control, testosterone.

[2] = test system: 451 kinase types; experiment: KINOMEscan Assay Panel broad kinase screen; assay type: binding, human; conditions: screen against 451 kinase types
Method: The kinase selectivity of a representative disclosed compound, compound 3 (N-(3-(6-((3-morpholinophenyl)amino)-1H-pyrazolo[3,4-d]pyrimidin-4-yl)phenyl)acrylamide), which corresponds to compound 3 in Table I, was evaluated in multiple kinase assays. A broad based screen was conducted against 451 kinase types using the KINOMEscan Assay Panel. The results were able to map 14 interactions with an S-Score(35)=0.03. The interactions are highlighted in FIG. 4 (panels A and B), and are indicated by the dark circles in the figure.

[3] = target: BTK (Homo sapiens, UniProt Q06187); experiment: BTK kinase assay: time resolved-FRET (HTRF) assay; assay type: biochemical; set-up: recombinant full-length human BTK kinase with a (His)6 tag; (His)6; purchased Invitrogen Corporation, Carlsbad, Calif; conditions: 10 nM BTK, 60 μM ATP, 1 μM substrate
Chain of BTK (Q06187 whole entry): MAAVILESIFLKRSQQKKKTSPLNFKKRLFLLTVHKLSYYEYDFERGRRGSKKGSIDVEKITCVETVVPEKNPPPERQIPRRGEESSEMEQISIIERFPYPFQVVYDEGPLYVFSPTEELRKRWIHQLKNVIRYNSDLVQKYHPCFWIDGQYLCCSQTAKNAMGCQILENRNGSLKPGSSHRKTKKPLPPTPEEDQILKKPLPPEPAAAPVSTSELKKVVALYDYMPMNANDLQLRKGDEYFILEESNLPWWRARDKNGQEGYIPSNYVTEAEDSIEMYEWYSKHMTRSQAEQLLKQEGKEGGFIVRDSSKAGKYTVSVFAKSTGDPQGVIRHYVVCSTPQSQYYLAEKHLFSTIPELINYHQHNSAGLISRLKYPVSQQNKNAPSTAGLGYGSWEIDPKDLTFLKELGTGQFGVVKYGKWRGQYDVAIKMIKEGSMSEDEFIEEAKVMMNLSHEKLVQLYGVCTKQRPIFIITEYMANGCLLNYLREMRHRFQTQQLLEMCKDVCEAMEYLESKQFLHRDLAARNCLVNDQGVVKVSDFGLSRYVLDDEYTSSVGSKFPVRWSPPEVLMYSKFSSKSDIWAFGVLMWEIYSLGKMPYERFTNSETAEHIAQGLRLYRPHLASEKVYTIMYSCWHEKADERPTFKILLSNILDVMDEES
Method: Activity of compounds was routinely confirmed using a secondary assay as described herein. The secondary assay was a time resolved-FRET kinase assay. Test compound are diluted to desired concentrations in kinase reaction buffer and briefly incubated with BTK kinase (as described above; Invitrogen). The reaction is initiated by the addition of ATP and enzyme substrate, HTRF® KinEASE™-TK Substrate-biotin (Cisbio US, Bedford, Mass.). The composition of the reaction (10 μl) was: 1% v/v DMSO, 10 nM BTK, 60 μM ATP, and 1 μM substrate. After incubation at room temperature for 60 min, the enzyme reaction is stopped by EDTA-containing buffer, which also contains europium-labeled (Eu^3+-Cryptate) anti-phosphotyrosine antibody (Cisbio) and Streptavidin-XL665 (Cisbio). The europium-labeled antibody generates a time-resolved FRET signal with the Stepavidin-XL665, which binds to the biotinylated TK substrate through the streptavidin conjugate when the substrate is phosphorylated. After one hour incubation at room temperature, fluoresence was measured with excitation of 320 nm and dual emission of 615 and 665 nm on an EnVision microplate reader. Signal is expressed in terms of a TR-FRET ratio (665:615).
IC50 values are determined using GraphPad Prism 5 software. The data were entered as an X-Y plot into the software as percent inhibition for each concentration of the drug. The concentration values of the drug were log transformed and the nonlinear regression was carried out using the “sigmoidal dose-response (variable slope)” option within the GraphPad software to model the data and calculate IC50 values. The IC50 values reported are the concentration of drug at which 50% inhibition was reached.
Activity (IC50) was determined in the BTK assays describe herein below, i.e. either the ADP generation assay and/or the time-resolved FRET assay, and the data are shown in Table III. The compound number corresponds to the compound numbers used in Table I. In the table below, “ADP Assay” refers to the assay which measures production of ADP resulting from use of ATP by the kinase; and “HTRF Assay” refers to the time resolved-FRET kinase assay described in the examples. Multiple values in a given column indicate the results of more than one assay for the given compound. Representative data of the type used to determine the IC50 values for the ADP assay in Table III are shown in FIG. 8 for compounds 3, 4, and 5.

[4] = Glutathione (GSH) trapping assay; assay type: in vitro ADME; conditions: peak area vs intact compound 3 at time zero, 1 mg/mL human liver microsomal protein
Description: Drug metabolism in vivo can lead to reactive intermediates that form covalent adducts with cellular materials. Such covalent binding of reactive metabolites is potentially involved in severe adverse drug reactions. However, the covalent binding assay is of low throughput and costly, a qualitative trapping assay measuring trapping of drug glutathione conjugates in human liver microsomes can provide information on the propensity of a drug candidate to be involved in covalent binding reactions. A glutathione (GSH) trapping assay was carried out on representative disclosed compound, compound 3, and the results are shown in Table VIII. […] The assay was carried out with 1 mg total human liver microsomal protein per milliliter.

[5] = Plasma stability assay; assay type: in vitro ADME; set-up: half-life: dose or concentration left out as unconfirmed
Method: The representative compound, compound 3, was also assessed in a plasma stability assay. Briefly, the compound was present at a concentration […] in plasma from three mammalian species (human, rat, and mouse). The concentration of intact drug (i.e. unmodified drug) at the indicated time points was determined using a LC-MS/MS assay. The data are consistent with good drug stability under the conditions tested.

C=CC(=O)Nc1cccc(-c2nc(Nc3cccc(N4CCOCC4)c3)nc3[nH]ncc23)c1 [Compound 3, N-(3-(6-((3-morpholinophenyl)amino)-1H-pyrazolo[3,4-d]pyrimidin-4-yl)phenyl)acrylamide]
half-life at 1 μM ([1]; rat microsomes): 14 min
Compound Remaining ([1]; 0 min): 100 % of initial amount
Compound Remaining ([1]; 10 min): 55.2 % of initial amount
Compound Remaining ([1]; 20 min): 33.6 % of initial amount
Compound Remaining ([1]; 30 min): 20.5 % of initial amount
Compound Remaining ([1]; 60 min): 5.13 % of initial amount
microsomal CLint at 1 μM ([1]; rat microsomes, read-out: CLinit (intrinsic clearance)): 100 µL/min/mg
Number of interactions mapped [2]: 14
S-Score(35) [2]: 0.03
IC50 [3]: 8 nM
% Compared to Parent Compound, 0 min ([4]; 0 min): 100%
% Compared to Parent Compound, 60 min ([4]; 60 min): 47%
half-life ([5]; human plasma): > 120 min
Compound Remaining ([5]; human plasma, 0 min): 100 % of initial amount
Compound Remaining ([5]; human plasma, 15 min): 90.1 % of initial amount
Compound Remaining ([5]; human plasma, 30 min): 99.6 % of initial amount
Compound Remaining ([5]; human plasma, 60 min): 91.3 % of initial amount
Compound Remaining ([5]; human plasma, 120 min): 78.6 % of initial amount
half-life ([5]; mouse plasma): > 120 min
Compound Remaining ([5]; mouse plasma, 0 min): 100 % of initial amount
Compound Remaining ([5]; mouse plasma, 15 min): 100 % of initial amount
Compound Remaining ([5]; mouse plasma, 30 min): 101 % of initial amount
Compound Remaining ([5]; mouse plasma, 60 min): 85.8 % of initial amount
Compound Remaining ([5]; mouse plasma, 120 min): 91.7 % of initial amount
half-life ([5]; rat plasma): > 120 min
Compound Remaining ([5]; rat plasma, 0 min): 100 % of initial amount
Compound Remaining ([5]; rat plasma, 15 min): 95.2 % of initial amount
Compound Remaining ([5]; rat plasma, 30 min): 92.9 % of initial amount
Compound Remaining ([5]; rat plasma, 60 min): 80.2 % of initial amount
Compound Remaining ([5]; rat plasma, 120 min): 55.9 % of initial amount
